According to PubChem BioAssay (NCI):
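Cultured in 96-well plates, cells were exposed to test compound for 48 hours across five concentrations. GI50 marks 50% less growth. TGI denotes the concentration required for complete inhibition of growth.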

Assays:
Experiment in all cases: NCI-60 cell line screen, 48 h
CAKI-1 renal = system: CAKI-1 renal
SF-295 CNS = system: SF-295 CNS
MOLT-4 leukemia = system: MOLT-4 leukemia
MALME-3M melanoma = system: MALME-3M melanoma
CCRF-CEM leukemia = system: CCRF-CEM leukemia
PC-3 prostate = system: PC-3 prostate
SF-539 CNS = system: SF-539 CNS
HCC-2998 colon = system: HCC-2998 colon
BT-549 breast = system: BT-549 breast
SK-MEL-5 melanoma = system: SK-MEL-5 melanoma
SK-MEL-2 melanoma = system: SK-MEL-2 melanoma
TK-10 renal = system: TK-10 renal
HS 578T breast = system: HS 578T breast
MCF7 breast = system: MCF7 breast
UO-31 renal = system: UO-31 renal
ACHN renal = system: ACHN renal
RXF 393 renal = system: RXF 393 renal
UACC-62 melanoma = system: UACC-62 melanoma
A498 renal = system: A498 renal
KM12 colon = system: KM12 colon
SK-MEL-28 melanoma = system: SK-MEL-28 melanoma
NCI-H226 lung = system: NCI-H226 lung
SF-268 CNS = system: SF-268 CNS
OVCAR-5 ovarian = system: OVCAR-5 ovarian
HCT-15 colon = system: HCT-15 colon
HL-60(TB) leukemia = system: HL-60(TB) leukemia
SNB-75 CNS = system: SNB-75 CNS
IGROV1 ovarian = system: IGROV1 ovarian
HOP-62 NSCLC = system: HOP-62 NSCLC

## CC(C)(C)[Si](C)(C)OC1[C@@H](O[Si](C)(C)C(C)(C)C)[C@@H](CNC(=O)NC(=O)NC(=O)CCl)O[C@H]1n1cnc2c(NC(=O)Nc3ccccc3)ncnc21 (stereo partly drawn)
CAKI-1 renal
  GI50: 2200 nM
  TGI: 9.42 µM
SF-295 CNS
  GI50: 4.91 µM
  TGI: 15 µM
MOLT-4 leukemia
  GI50: 1170 nM
  TGI: 2530 nM
MALME-3M melanoma
  GI50: 1340 nM
  TGI: 3.64 µM
CCRF-CEM leukemia
  GI50: 127 nM
  TGI: 334 nM
PC-3 prostate
  GI50: 1100 nM
  TGI: 3.93 µM
SF-539 CNS
  GI50: 8.82 µM
  TGI: 16.1 µM
HCC-2998 colon
  GI50: 8.74 µM
  TGI: 18.6 µM
BT-549 breast
  GI50: 6.57 µM
  TGI: 13.1 µM
SK-MEL-5 melanoma
  GI50: 8.21 µM
  TGI: 15 µM
SK-MEL-2 melanoma
  GI50: 8.62 µM
  TGI: 17.6 µM
TK-10 renal
  GI50: 2420 nM
  TGI: 7.81 µM
HS 578T breast
  GI50: 4.52 µM
  TGI: 20.6 µM
MCF7 breast
  GI50: 3.76 µM
  TGI: 11.9 µM
UO-31 renal
  GI50: 959 nM
  TGI: 1890 nM
ACHN renal
  GI50: 5.03 µM
  TGI: 12.2 µM
RXF 393 renal
  GI50: 2130 nM
  TGI: 6.88 µM
UACC-62 melanoma
  GI50: 8.41 µM
  TGI: 18.6 µM
A498 renal
  GI50: 6.46 µM
  TGI: 13.3 µM
KM12 colon
  GI50: 1840 nM
  TGI: 6.12 µM
SK-MEL-28 melanoma
  GI50: 8.78 µM
  TGI: 17.8 µM
NCI-H226 lung
  GI50: 8.67 µM
  TGI: 15.9 µM
SF-268 CNS
  GI50: 4.51 µM
  TGI: 14 µM
OVCAR-5 ovarian
  GI50: 6.41 µM
  TGI: 14.1 µM
HCT-15 colon
  GI50: 9.28 µM
  TGI: 22.2 µM
HL-60(TB) leukemia
  GI50: 1450 nM
  TGI: 3.22 µM
SNB-75 CNS
  GI50: 5.84 µM
  TGI: 13.9 µM
IGROV1 ovarian
  GI50: 361 nM
  TGI: 1330 nM
HOP-62 NSCLC
  GI50: 1660 nM
  TGI: 4.8 µM
